Assay results as given in patent publication US7157432B2, “Tetraphenylbacteriochlorin derivatives and compositions containing the same” (San-Ei Gen F.F.I., Inc., priority 2000, dated 2007).

Tested on: HeLa cells
Experiment: Phototoxicity test (MTT assay, viability of HeLa cells after irradiation)
Format: cell-based
Conditions: test compound 5 or 10 μM for two hours, 500 W halogen lamp with filter cutting off light shorter than 500 nm for 8 minutes, MTT after 24 hours
Experimental: Each of Compounds 1 to 16 was evaluated about its cytotoxicity by viability of HeLa cells using MTT assay (Carmichal, J., W. G. DeGraff, A. F. Gazdar, J. D. Minna and J. B. Mitchell, Cancer Res., 1987, 47, 936–942). HeLa cells (1×10^4 cells/well) were incubated in Dulbecco's modified Eagle's medium (DMEM) containing 10% fetal bovine serum (FBS) on a 96-well plate in 5% CO2 at 37° C. for 24 hours. After washing with phosphate buffered saline (PBS), the cells were incubated in DMEM without serum in the presence of each of the compounds to be tested (5 or 10 μM) for two hours. The cells were washed with PBS and irradiated with a 500 W halogen lamp equipped with a filter cutting off the light shorter than 500 nm wave length for 8 minutes. After 24 hours' incubation, the viability was measured by the MTT assay. HeLa cells without test compound were used as a control. […] The survival ratio of the cells is calculated by the following formula: Cell survival ratio (%)=(OD540 in presence of test compound with irradiation/OD540 in presence of test compound without irradiation)×100. A cell survival ratio of 100% means the absence of cytotoxicity.

| SMILES | cytotoxicity when irradiated with light (cell survival ratio, FIG. 2) |
| --- | --- |
| OC[C@H]1O[C@@H](Oc2cccc(-c3c4nc(c(-c5cccc(O[C@@H]6O[C@H](CO)[C@@H](O)[C@H](O)[C@H]6O)c5)c5ccc([nH]5)c(-c5cccc(O[C@@H]6O[C@H](CO)[C@@H](O)[C@H](O)[C@H]6O)c5)c5nc(c(-c6cccc(O[C@@H]7O[C@H](CO)[C@@H](O)[C@H](O)[C@H]7O)c6)c6ccc3[nH]6)CC5)CC4)c2)[C@H](O)[C@@H](O)[C@@H]1O [Compound 10, 5,10,15,20-tetrakis[3-(β-D-glucopyranosyloxy)phenyl]-bacteriochlorin] | exhibited cytotoxicity |
| O[C@@H]1[C@H](Oc2cccc(-c3c4nc(c(-c5cccc(O[C@@H]6OC[C@@H](O)[C@@H](O)[C@@H]6O)c5)c5ccc([nH]5)c(-c5cccc(O[C@@H]6OC[C@@H](O)[C@@H](O)[C@@H]6O)c5)c5nc(c(-c6cccc(O[C@@H]7OC[C@@H](O)[C@@H](O)[C@@H]7O)c6)c6ccc3[nH]6)CC5)CC4)c2)OC[C@@H](O)[C@H]1O [Compound 14, 5,10,15,20-tetrakis[3-(β-D-arabinopyranosyloxy)phenyl]-bacteriochlorin] | exhibited cytotoxicity |
| O[C@@H]1[C@@H](O)[C@H](Oc2cccc(-c3c4nc(c(-c5cccc(O[C@@H]6OC[C@@H](O)[C@H](O)[C@H]6O)c5)c5ccc([nH]5)c(-c5cccc(O[C@@H]6OC[C@@H](O)[C@H](O)[C@H]6O)c5)c5nc(c(-c6cccc(O[C@@H]7OC[C@@H](O)[C@H](O)[C@H]7O)c6)c6ccc3[nH]6)CC5)CC4)c2)OC[C@H]1O [Compound 16, 5,10,15,20-tetrakis[3-(β-D-xylopyranosyloxy)phenyl]bacteriochlorin] | exhibited cytotoxicity |

Tested on: not listed separately
Experiment: UV absorption in DMSO at 20° C.
Format: physicochemical
Conditions: FIG. 1
Excerpt: As clearly shown in FIG. 1, the compounds of the present invention have a strong UV absorption peak around 740 nm. Compounds 3 to 8 and 11 to 16 show an UV absorption pattern similar to that of tetraphenylbacteriochlorin and also have a strong UV absorption peak around 740 nm.

| SMILES | strong UV absorption peak |
| --- | --- |
| CC(=O)OC[C@H]1O[C@@H](Oc2ccc(-c3c4nc(c(-c5ccc(O[C@@H]6O[C@H](COC(C)=O)[C@@H](OC(C)=O)[C@H](OC(C)=O)[C@H]6OC(C)=O)cc5)c5ccc([nH]5)c(-c5ccc(O[C@@H]6O[C@H](COC(C)=O)[C@@H](OC(C)=O)[C@H](OC(C)=O)[C@H]6OC(C)=O)cc5)c5nc(c(-c6ccc(O[C@@H]7O[C@H](COC(C)=O)[C@@H](OC(C)=O)[C@H](OC(C)=O)[C@H]7OC(C)=O)cc6)c6ccc3[nH]6)CC5)CC4)cc2)[C@H](OC(C)=O)[C@@H](OC(C)=O)[C@@H]1OC(C)=O [Compound 1, 5,10,15,20-tetrakis[4-(2′,3′,4′,6′-tetra-O-acetyl-β-D-glucopyranosyloxy)phenyl]bacteriochlorin] | around 740 nm |
| OC[C@H]1O[C@@H](Oc2cccc(-c3c4nc(c(-c5cccc(O[C@@H]6O[C@H](CO)[C@@H](O)[C@H](O)[C@H]6O)c5)c5ccc([nH]5)c(-c5cccc(O[C@@H]6O[C@H](CO)[C@@H](O)[C@H](O)[C@H]6O)c5)c5nc(c(-c6cccc(O[C@@H]7O[C@H](CO)[C@@H](O)[C@H](O)[C@H]7O)c6)c6ccc3[nH]6)CC5)CC4)c2)[C@H](O)[C@@H](O)[C@@H]1O [Compound 10, 5,10,15,20-tetrakis[3-(β-D-glucopyranosyloxy)phenyl]-bacteriochlorin] | around 740 nm |
| OC[C@H]1O[C@@H](Oc2ccc(-c3c4nc(c(-c5ccc(O[C@@H]6O[C@H](CO)[C@@H](O)[C@H](O)[C@H]6O)cc5)c5ccc([nH]5)c(-c5ccc(O[C@@H]6O[C@H](CO)[C@@H](O)[C@H](O)[C@H]6O)cc5)c5nc(c(-c6ccc(O[C@@H]7O[C@H](CO)[C@@H](O)[C@H](O)[C@H]7O)cc6)c6ccc3[nH]6)CC5)CC4)cc2)[C@H](O)[C@@H](O)[C@@H]1O [Compound 9, 5,10,15,20-tetrakis[4-(β-D-glucopyranosyloxy)phenyl]-bacteriochlorin] | around 740 nm |
| CC(=O)OC[C@H]1O[C@@H](Oc2cccc(-c3c4nc(c(-c5cccc(O[C@@H]6O[C@H](COC(C)=O)[C@@H](OC(C)=O)[C@H](OC(C)=O)[C@H]6OC(C)=O)c5)c5ccc([nH]5)c(-c5cccc(O[C@@H]6O[C@H](COC(C)=O)[C@@H](OC(C)=O)[C@H](OC(C)=O)[C@H]6OC(C)=O)c5)c5nc(c(-c6cccc(O[C@@H]7O[C@H](COC(C)=O)[C@@H](OC(C)=O)[C@H](OC(C)=O)[C@H]7OC(C)=O)c6)c6ccc3[nH]6)CC5)CC4)c2)[C@H](OC(C)=O)[C@@H](OC(C)=O)[C@@H]1OC(C)=O [Compound 2, 5,10,15,20-tetrakis[3-(2′,3′,4′,6′-tetra-O-acetyl-β-D-glucopyranosyloxy)phenyl]bacteriochlorin] | around 740 nm |
